Consider 22 compounds from patent US11014908B2, “Chemical compounds” (Pfizer Inc., priority 2018, dated 2021).

The target of assay [1] is T1, purified sickle cell hemoglobin (HbS) (Homo sapiens, UniProt P68871+P69905, E7V).
T1 construct: HbS was obtained from the blood of homozygous S/S patients; from tissue; host or cells: red blood cells of homozygous S/S patients
The assay is described as follows: Binding affinity to purified HbS by Surface Plasmon Resonance (SPR). The settings on record: crosslinked biotinylated HbS, 1:1 binding model. As to the method: Binding Affinity, Kd (uM)
The binding affinity for compounds to purified sickle cell hemoglobin (HbS) was determined using Surface Plasmon Resonance (SPR). Patient Sickle Cell blood was obtained from Boston Children's Hospital in accordance with Institutional Review Board protocols. HbS was obtained from the blood of homozygous S/S patients, and purified using the method described in: Antonini and Brunori, Hemoglobin and Myoglobin in their Reactions with Ligands. Amsterdam, London, North-Holland Publishing Company, 1971. Whole blood was separated into red blood cell and plasma components by centrifugation, after which the plasma was decanted and discarded. Packed red blood cells were washed with normal saline (0.9% NaCl) and then lysed by 2:1 dilution with cold deionized water. The hemolysate was centrifuged to remove cellular debris, and further purified with the addition of Drabkin's Buffer (2.8 M potassium phosphate), and centrifugation with Celite®. Organic phosphates (2,3-BPG) were removed via gel filtration with Sephadex® G-25. HbS and wild-type hemoglobin, hemoglobin A (HbA), were separated by […], using diethylaminoethyl (DEAE)-Sepharose® fast flow, and eluted using a pH gradient from pH 8.5-pH 7.5. Purity of the resulting HbS and HbA was determined by native gel electrophoresis and HbS fractions used further.
To stabilize the tetrameric structure of hemoglobin, HbS was crosslinked between the beta subunits (Lys82-Lys82) using bis(3,5-dibromosalicyl) fumarate, as described in: Shibayama N. et al, J Am Chem Soc 2014, 136, 13, 5097-5105 and Shibayama N. et al, Biochemistry 1991, 39, 33, 8158-8165). Crosslinked HbS was subsequently biotynylated and captured on a custom made Streptavidin sensor to achieve protein density of 4000 to 5000 resonance units (RUs) on the surface. Compound binding to HbS using SPR was tested on Sierra Sensors MASS-1 instrument. The running buffer contained 100 mM Potassium Phosphate, pH 7.5, 0.005% Tween-20, 1 mM ethylenediaminetetraacetic acid (EDTA), 0.1 mg/mL bovine serum albumin with 1% DMSO. Compound samples were injected at a flow rate of 30 μL/min for 2 minutes association and at least 5 minutes of dissociation time. A 2- or 3-fold dilution series containing at least 4 concentrations were tested for each compound. The dose range was selected based on the activity of the compounds in biochemical assays, when available. Multiple blank injections of running buffer were run before and after each compound series to allow blank subtraction for compound data in the analysis software. Positive controls were run in each experiment to monitor and maintain the activity of HbS on the surface. A DMSO curve was run at the beginning of each data set to apply an excluded volume correction to the data during analysis. The data were processed and analyzed using Sierra Sensors and Scrubber 2.0 software. The binding affinities (dissociation constant Kd) were calculated by fitting the sensorgrams to a 1:1 binding model.

Another assay has as its target T2, HbS (Homo sapiens, UniProt P68871+P69905, E7V).
T2 construct: HbS was obtained from the blood of homozygous S/S patients; from tissue; host or cells: red blood cells of homozygous S/S patients
The assay is described as follows: 'R'-'T' assay (conversion of oxy HbS to deoxy HbS under deoxygenating conditions). The class given is biochemical. The following applies: 50% inhibition of HbS 'R'-'T' conversion; 3 uM HbS, <1% O2. As to the method: Conversion from oxy (R, relaxed state) to deoxy (T, tense state) HbS in the presence of compound was performed to determine the ability of compounds to stabilize the oxy (R) state under deoxygenating conditions. The assay run was similar to the ‘Oxygen dissociation assay’ described in Oksenberg et al, Br J Haematology, 2016, 175, 141-153.
Assay ready compound plates were prepared by first preparing a master serial dilution plate from a 30 mM initial compound stock in 100% DMSO. From this master serial dilution plate, 167 nL of the desired compound concentration was delivered to the assay ready plates using acoustical dispensing. Plates were frozen at −20° C. until needed. Purified HbS-O2 (i.e. oxy HbS) was diluted to 3 uM in 100 mM potassium phosphate buffer, pH=7.4. 50 uL of 3 uM stock solution was added to each well of the assay ready plate and mechanically mixed eight times. Following mixing the plates were covered and incubated at room temperature for one hour with moderate shaking. Following incubation, the plates were placed in a deoxygenated environment (<1% O2) for two hours, and the conversion to deoxy HbS monitored as a function of time. Oxygenated and deoxygenated forms of hemoglobin were detected using the absorbance of the Soret peaks at 415 and 430 nm respectively, and absorbance measurements (optical density, OD) were taken at 0, 90 and 120 minutes. Background absorbance for correction was collected at 700 nm.
Data were analyzed by first subtracting baseline absorbance at 700 nm from 415 nm and 430 nm data at each timepoint, and then taking the ratio of 415/430 nm data (Ratio=[(OD415−OD700)/(OD430−OD700)]. The effect at each timepoint was calculated using the ratios from the previous calculation at time 0 and each time point of interest (Effect^time x=Ratio^time x/Ratio^time 0). Percent effect was calculated by comparing the effects of compound versus HbS only with the effects observed by the positive control compound tucaresol (percent effect=[(effect^time x compound−effect^time x HbS)/(effect^time x tucaresol−effect^time x HbS)]×100). Data were reported as the percent effect for a single point. Calculations to determine the concentration of compound for 50% inhibition (IC50 (uM)) of the HbS ‘R’-‘T’ conversion were based on the percent effect at varying compound concentration.

The structures appear in SMILES notation.

A word on the Kd: it is the concentration at which binding is half-saturated. Low values mean higher affinity, high ones lower affinity. In general, IC50 refers to the midpoint of a concentration-inhibition curve. The low end stands for greater potency, the high end for weaker potency.

On to `COc1ccc(-n2cccn2)c([C@H](C)Oc2cc3cc(F)ccc3nc2N)n1` [Example 57, 6-fluoro-3-{(1S)-1-[6-methoxy-3-(1H-pyrazol-1-yl)pyridin-2-yl]ethoxy}quinolin-2-amine], for which the affinity in assay [1], expressed as Kd, was 0.184 µM. Also, the IC50 against HbS was 4.84 µM.
For `C[C@H](Oc1cc2cc(F)c(Cl)cc2nc1N)c1nc(C(N)=O)ccc1-n1cccn1` [Example 32, 6-{(1S)-1-[(2-amino-7-chloro-6-fluoroquinolin-3-yl)oxy]ethyl}-5-(1H-pyrazol-1-yl)pyridine-2-carboxamide], in that order: 0.057 µM and 4.75 µM.
For `C[C@H](Oc1cc2cc(C#N)ccc2nc1N)c1ncc(F)cc1-n1cccn1` [Example 26, 2-amino-3-{(1S)-1-[5-fluoro-3-(1H-pyrazol-1-yl)pyridin-2-yl]ethoxy}quinoline-6-carbonitrile] the same measures were 0.138 µM and 4.91 µM.
For `C[C@H](Oc1cc2cc(F)ccc2nc1N)c1cc(C(=O)N[C@H]2C[C@H](O)C2)ccc1-n1cccn1` [Example 14, 3-{(1S)-1-[(2-amino-6-fluoroquinolin-3-yl)oxy]ethyl}-N-(trans-3-hydroxycyclobutyl)-4-(1H-pyrazol-1-yl)benzamide] the same measures were 0.041 µM and 4.3 µM.
For `C[C@H](Oc1cc2cc(F)c(Cl)cc2nc1N)c1cc(C(N)=O)c(F)cc1-n1cccn1` [Example 2, 5-{(1S)-1-[(2-amino-7-chloro-6-fluoroquinolin-3-yl)oxy]ethyl}-2-fluoro-4-(1H-pyrazol-1-yl)benzamide], in assay [1], the Kd came to 0.021 µM. Also, the IC50 against HbS is 6.82 µM.
For `C[C@H](Oc1cc2cc(F)ccc2nc1N)c1cc2[nH]ncc2cc1-n1cccn1` (single isomer, unassigned) [Example 59], in that order: 0.047 µM and 4.5 µM.
For `Cc1cc2nc(N)c(O[C@@H](C)c3nc(O)ccc3-n3cccn3)cc2cn1` [Example 46, 6-{(1S)-1-[(2-amino-7-methyl-1,6-naphthyridin-3-yl)oxy]ethyl}-5-(1H-pyrazol-1-yl)pyridin-2-ol], in that order: 0.102 µM and 5.22 µM.
For `C[C@H](Oc1cc2cc(C(N)=O)ccc2nc1N)c1cc2c(cnn2CCO)cc1-n1cccn1` (single isomer, unassigned) [Example 74] the same measures were 0.059 µM and 4.28 µM.
In assay [1], `COCCNC(=O)c1ccc(-n2cccn2)c([C@H](C)Oc2cc3cc(F)ccc3nc2N)c1` [Example 11, 3-{(1S)-1-[(2-amino-6-fluoroquinolin-3-yl)oxy]ethyl}-N-(2-methoxyethyl)-4-(1H-pyrazol-1-yl)benzamide] gave a dissociation constant (Kd) of 0.061 µM. Moreover, the half-maximal inhibitory concentration (IC50) against HbS worked out at 4.35 µM.
For `C[C@H](Oc1cc2cc(C(N)=O)ccc2nc1N)c1ncccc1-n1cccn1` [Example 30, 2-amino-3-{(1S)-1-[3-(1H-pyrazol-1-yl)pyridin-2-yl]ethoxy}quinoline-6-carboxamide], in that order: 1.51 µM and 6.25 µM.
For `C[C@H](Oc1cc2cc(F)ccc2nc1N)c1cc(CCC(=O)O)ccc1-n1cccn1` [Example 16, 3-[3-{(1S)-1-[(2-amino-6-fluoroquinolin-3-yl)oxy]ethyl}-4-(1H-pyrazol-1-yl)phenyl]propanoic Acid], in that order: 0.188 µM and 3.6 µM.
For the compound `C[C@H](Oc1cc2cc(Br)ccc2nc1N)c1cc(C(N)=O)ccc1-n1cccn1` (single isomer, unassigned) [Example 3], the Kd in assay [1] turned out to be 0.067 µM. At HbS, this compound yielded an IC50 of 5.06 µM.
For `C[C@H](Oc1cc2cc(F)ccc2nc1N)c1nc(C(=O)O)c(F)cc1-n1cccn1` [Example 39, 6-{(1S)-1-[(2-amino-6-fluoroquinolin-3-yl)oxy]ethyl}-3-fluoro-5-(1H-pyrazol-1-yl)pyridine-2-carboxylic Acid], in that order: 0.464 µM and 6.22 µM.
For `C[C@H](Oc1cc2cc(F)c(Cl)cc2nc1N)c1ncccc1-n1cccn1` [Example 29, 7-chloro-6-fluoro-3-{(1S)-1-[3-(1H-pyrazol-1-yl)pyridin-2-yl]ethoxy}quinolin-2-amine] the same measures were 0.067 µM and 4.58 µM.
For `C[C@H](Oc1cc2cc(F)ccc2nc1N)c1nc(C(=O)O)ccc1-n1cccn1` [Example 37, 6-{(1S)-1-[(2-amino-6-fluoroquinolin-3-yl)oxy]ethyl}-5-(1H-pyrazol-1-yl)pyridine-2-carboxylic Acid] the same measures were 0.579 µM and 6.77 µM.
`C[C@H](Oc1cc2cc(F)ccc2nc1N)c1cc(C(=O)NCCCO)ccc1-n1cccn1` [Example 13, 3-{(1S)-1-[(2-amino-6-fluoroquinolin-3-yl)oxy]ethyl}-N-(3-hydroxypropyl)-4-(1H-pyrazol-1-yl)benzamide] had an equilibrium dissociation constant (Kd) in assay [1] of 0.065 µM. In addition, on HbS, the half-inhibitory concentration (IC50) came to 4.33 µM.
For `C[C@H](Oc1cc2cc(F)ccc2nc1N)c1ncc(F)cc1-n1cccn1` [Example 33, 6-fluoro-3-{(1S)-1-[5-fluoro-3-(1H-pyrazol-1-yl)pyridin-2-yl]ethoxy}quinolin-2-amine], in that order: 0.034 µM and 4.3 µM.
For `C[C@H](Oc1cc2cc(Br)ccc2nc1N)c1ncccc1-n1cccn1` [Example 28, 6-bromo-3-{(1S)-1-[3-(1H-pyrazol-1-yl)pyridin-2-yl]ethoxy}quinolin-2-amine], in that order: 0.157 µM and 6.56 µM.
As to `C[C@H](Oc1cc2cc(C(N)=O)ccc2nc1N)c1nc(OCCO)ccc1-n1cccn1` [Example 42, 2-amino-3-{(1S)-1-[6-(2-hydroxyethoxy)-3-(1H-pyrazol-1-yl)pyridin-2-yl]ethoxy}quinoline-6-carboxamide], binding in assay [1] was characterised by a dissociation constant (Kd) of 0.142 µM. The compound also gave an IC50 against HbS of 5.26 µM.
For `C[C@H](Oc1cc2cc(F)ccc2nc1N)c1cc2c(cnn2CC(N)=O)cc1-n1cccn1` [Example 70, 2-[6-{(1S)-1-[(2-amino-6-fluoroquinolin-3-yl)oxy]ethyl}-5-(1H-pyrazol-1-yl)-1H-indazol-1-yl]acetamide], in that order: 0.013 µM and 4.6 µM.
For `Cc1cc2nc(N)c(O[C@@H](C)c3cc(C(=O)O)ccc3-n3cccn3)cc2cn1` [Example 22, 3-{(1S)-1-[(2-amino-7-methyl-1,6-naphthyridin-3-yl)oxy]ethyl}-4-(1H-pyrazol-1-yl)benzoic Acid] the same measures were 0.172 µM and 5.4 µM.
For `C[C@H](Oc1cc2cc(F)ccc2nc1N)c1cc(C(=O)NCCO)ccc1-n1cccn1` [Example 12, 3-{(1S)-1-[(2-amino-6-fluoroquinolin-3-yl)oxy]ethyl}-N-(2-hydroxyethyl)-4-(1H-pyrazol-1-yl)benzamide] the same measures were 0.038 µM and 4.48 µM.
